From patent US20060051868A1, “Methods for increasing conifer somatic embryo initiation, capture, and multiplication” (priority 2001, published 2006)

Legend:
Assay type in all cases: cell-based
[1] = tested on: Norway Spruce embryo and female gametophyte; test: Initiation frequency of embryogenic cultures from Norway Spruce seed embryos; conditions: base media #56; MES 0.25 gm/l (Media 1362); vitamins 0.05 ppm biotin + 0.5 ppm folic acid (Media 1363); nine weeks, light; control 38.5
Protocol: Mature Norway Spruce seeds were soaked in running water for 1 hour at room temperature and then stored in water for 24 hours in a refrigerator at 4° C. The seeds were sterilized by agitation in 10% liquinox containing 1.1 ml/l Tween 20 for 10 minutes followed by a 30 minute rinse with running tap water. In a sterile laminar flow hood, the rinsed seeds were agitated in 20% H2O2 for 10 min., then again rinsed with sterile deionized water for 5 cycles of 5 to 10 min. each. The sterile Norway Spruce seeds were placed into petri dishes onto sterile moistened filter paper for dissection. Seeds were opened and the female gametophyte removed. The female gametophyte was placed on its side and further opened. The embryo was removed from the gametophyte and placed onto a test medium next to the female gametophyte. Petri dishes containing the embryo and gametophyte were covered and wrapped with Parafilm® and incubated in light at 23-24° C. for nine weeks. The control-medium used for Norway Spruce was media #56. Refer to Table 21 for a detailed listing of media components. The three test media contained combinations of buffering reagent MES and/or vitamins. […] Initiation frequency was determined to be 38.5% for the control media, while the frequency on the control medium with the addition of 0.33 ppm paclobutrazol averaged roughly 48.5%. […]

[2] = tested on: slash pine megagametophyte; test: Initiation frequency of embryogenic cultures from slash pine megagametophytes; conditions: 1.0 ppm paclobutrazol in media #1369B (Media 1374); 8 weeks, dark; control 19.3
Protocol: A further representative example in conifer to show the effects of gibberellin inhibitors in a buffered media is slash pine. Three cone collections with embryos at stages 2-4 were chosen. Removed seeds were soaked in running water for […]. and then agitated in 10% liquinox containing 1.1 ml/l Tween 20 for an additional 10 min. Seeds were sterilized in a laminar flood by agitating in 20% H2O2 for 10 min. Seeds were rinsed in sterilized water for 5 cycles of 5 to 10 min. each. The sterile seeds were placed into a sterile petri dish and dissected. The dissection was performed by splitting the seed coat, removing the integuments and nucellus, and placing the megagametophyte on the test medium. Test media #1374 contains the components of media #1369B and 1.0 ppm paclobutrazol. 2 ml of the appropriate media was poured into multi-well plates sufficient for 10 replications for each genotype. The plates were then incubated in the dark for 8 weeks at 24-26° C.

[3] = tested on: Douglas-fir zygotic embryos; test: Initiation frequency of embryogenic cultures from Douglas-fir zygotic embryos; conditions: 1.0 ppm in media #121 (Media 1323); 8-9 weeks, dark; control 16.4
Protocol: Four Douglas-fir cone collections with zygotic embryos at stages 2-4 were chosen. Cones were supplied by The Timber Co. from Cottage Grove, Oregon. Seeds were removed from their cones, soaked in running water for 10 min., and agitated in 10% liquinox containing 1.1 ml/l Tween 20 for an additional 10 min. The seeds were then rinsed with running tap water for 30 min. Seeds were transferred into a laminar flow hood where they were sterilized by agitating in 20% H2O2 for 10 min. Seeds were rinsed in sterilized water for 5 cycles of 5 to 10 min. each. The sterile seeds were placed into a sterile petri dish and dissected. The dissection was performed by splitting the ovule, gently removing the dominant embryo while leaving the suspensor intact, and placing both the embryo and the connected female gametophyte on the test medium. Test medium #1323 is the same as control media #121 but contains 1.0 ppm paclobutrazol. 2 ml of the appropriate medium was poured into multi-well plates sufficient for 10 replications per cone collection. The plates were incubated in the dark for 8-9 weeks at 24-26° C. […] Four Douglas-fir cone collections with zygotic embryos at stages 2-4 were chosen. […] The initiation frequency for the four cone collections with the addition of salts, paclobutrazol, and brassinolide enclosed in a nylon bag was determined to be 38.6%. […]

Row | Structure (SMILES) | Initiation Frequency (%) [1] [%] | Initiation Frequency (%) [2] [%] | Initiation Frequency (%) [3] [%]
1 | O=S(=O)(O)CCN1CCOCC1 [MES, 2-(N-morpholino)-ethanesulfonic acid] | 40.2 | – | –
2 | CC(C)(C)[C@@H](O)[C@@H](Cc1ccc(Cl)cc1)n1cncn1 (racemic) [paclobutrazol] | – | 28.5 | 24.4
